Results published in patent US9963445B2, “Chemical compounds” (SYNGENTA PARTICIPATIONS AG, priority 2013, dated 2018).

Key:
Assay type in all cases: in vivo
[1] = tested on: Abutilon theophrasti; assay: Pre-emergence herbicidal activity, glasshouse pot test; conditions: pre-emergence spray, rate 1000 g/ha, evaluated after 13 days, scale 0-5
Procedure, shortened: (§1)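 Pots of seeded soil were sprayed one day after sowing (pre-emergence) with compound formulated in acetone/water 50:50 with 0.5% Tween 20. Plants were grown in a glasshouse at 24/16 °C day/night, 14 h light, 65% humidity. Damage was scored after 13 days on a 0–5 scale (5 = total damage).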

[2] = tested on: Alopecurus myosuroides; assay: as above; conditions: pre-emergence spray, rate 1000 g/ha, evaluated after 13 days, scale 0-5
Procedure, shortened: as §1

[3] = tested on: Amaranthus retroflexus; assay: as above; conditions: pre-emergence spray, rate 1000 g/ha, evaluated after 13 days, scale 0-5
Procedure, shortened: as §1

[4] = tested on: Echinochloa crus-galli; assay: as above; conditions: pre-emergence spray, rate 1000 g/ha, evaluated after 13 days, scale 0-5
Procedure, shortened: as §1

[5] = tested on: Setaria faberi; assay: as above; conditions: pre-emergence spray, rate 1000 g/ha, evaluated after 13 days, scale 0-5
Procedure, shortened: as §1

[6] = tested on: zea mays; assay: as above; conditions: pre-emergence spray, rate 1000 g/ha, evaluated after 13 days, scale 0-5
Procedure, shortened: as §1

[7] = tested on: Abutilon theophrasti; assay: Post-emergence herbicidal activity, glasshouse pot test; set-up: key: 0 = no damage to plant, 5 = total damage to plant; conditions: Application post-emergence, rate 1000 g/ha, evaluated after 13 days
Procedure, shortened: (§2)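 Damage rated 0 (none) to 5 (total) 13 days after spraying. Plants were treated post-emergence at 8 days after sowing, using an acetone/water (50:50) formulation with 0.5% Tween 20 diluted to an aqueous spray.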

[8] = tested on: Alopecurus myosuroides; assay: as above; set-up: key: 0 = no damage to plant, 5 = total damage to plant; conditions: Application post-emergence, rate 1000 g/ha, evaluated after 13 days
Procedure, shortened: as §2

[9] = tested on: Amaranthus retroflexus; assay: as above; set-up: key: 0 = no damage to plant, 5 = total damage to plant; conditions: Application post-emergence, rate 1000 g/ha, evaluated after 13 days
Procedure, shortened: as §2

[10] = tested on: Echinochloa crus-galli; assay: as above; set-up: key: 0 = no damage to plant, 5 = total damage to plant; conditions: Application post-emergence, rate 1000 g/ha, evaluated after 13 days
Procedure, shortened: as §2

[11] = tested on: Setaria faberi; assay: as above; set-up: key: 0 = no damage to plant, 5 = total damage to plant; conditions: Application post-emergence, rate 1000 g/ha, evaluated after 13 days
Procedure, shortened: as §2

[12] = tested on: zea mays; assay: as above; set-up: key: 0 = no damage to plant, 5 = total damage to plant; conditions: Application post-emergence, rate 1000 g/ha, evaluated after 13 days
Procedure, shortened: as §2

Compound	ABUTH damage score, application pre-emergence [1]	ALOMY damage score, application pre-emergence [2]	AMARE damage score, application pre-emergence [3]	ECHCG damage score, application pre-emergence [4]	SETFA damage score, application pre-emergence [5]	ZEAMX damage score, application pre-emergence [6]	ABUTH herbicidal damage score [7]	ALOMY herbicidal damage score [8]	AMARE herbicidal damage score [9]	ECHCG herbicidal damage score [10]	SETFA herbicidal damage score [11]	ZEAMX herbicidal damage score [12]
COC1=C(OC)C(O)N(c2cc(Br)ccn2)C1=O (stereo not drawn) [AK5]	0	1	1	4	1	0	5	5	5	5	5	0
COC1=C(OC)C(O)N(c2cc(OC)ccn2)C1=O (stereo not drawn) [AK6]	0	0	0	0	0	0	1	1	0	1	0	0
COC1=C(OC)C(O)N(c2cc(Cl)c(Cl)cn2)C1=O (stereo not drawn) [AK7]	2	0	0	4	0	0	5	4	5	5	5	1
COC1=C(OC)C(O)N(c2cc(C(F)(F)F)ccn2)C1=O (stereo not drawn) [AK8]	5	3	5	4	3	2	5	4	5	5	5	3
CC1=C(Cl)C(=O)N(c2cc(C(C)(C)C)c(Cl)nn2)C1O (stereo not drawn) [BF1]	4	2	5	2	3	1	5	4	5	5	4	2
COc1nnc(N2C(=O)C(Cl)=C(C)C2O)cc1C (stereo not drawn) [BF6]	4	3	5	5	3	2	5	5	5	5	5	4
CC1=C(Cl)C(=O)N(c2ccc(C(F)(F)F)nn2)C1O (stereo not drawn) [BF7]	4	2	4	3	4	1	2	2	2	3	4	2
COc1ccc(N2C(=O)C(Cl)=C(C)C2O)nn1 (stereo not drawn) [BF8]	5	2	1	4	3	0	5	4	5	5	5	1
CC1=C(Cl)C(=O)N(c2cc(C(C)C)c(Cl)nn2)C1O (stereo not drawn) [BF10]	4	4	3	5	5	2	5	5	5	5	5	3
CC1=C(Cl)C(=O)N(c2cc(C(C)(C)F)c(Cl)nn2)C1O (stereo not drawn) [BF11]	0	0	0	0	0	0	2	2	2	3	3	1
CC1=C(Cl)C(=O)N(c2cc(C(C)(F)F)c(Cl)nn2)C1O (stereo not drawn) [BF12]	3	3	5	4	4	2	4	4	5	5	5	3
CCc1cc(N2C(=O)C(Cl)=C(C)C2O)nnc1Cl (stereo not drawn) [BF13]	2	2	4	4	5	1	3	4	3	5	5	1
